Source: PMC5218480 (PLoS ONE, 2017)

System: MV-4-11 cells
Test: Gene expression microarray analysis (Affymetrix PrimeView) and GSEA
Format: cell-based, human
Parameters: RFU PODN (11730768_x_at) / Fold change /veh PODN (11730768_x_at) / RFU LINC00158 (11744669_a_at) / Fold change /veh LINC00158 (11744669_a_at) / RFU DUSP10 (11751237_a_at) / Fold change /veh DUSP10 (11751237_a_at) / RFU ID3 (11757404_x_at) / Fold change /veh ID3 (11757404_x_at) / RFU PLEKHG5 (11737974_s_at) / Fold change /veh PLEKHG5 (11737974_s_at) / RFU LRRC4B (11730491_at) / Fold change /veh LRRC4B (11730491_at) / RFU GIMAP4 (11747438_a_at) / Fold change /veh GIMAP4 (11747438_a_at) / RFU KRT8 (11758183_x_at) / Fold change /veh KRT8 (11758183_x_at) / RFU CNN1 (11734310_a_at) / Fold change /veh CNN1 (11734310_a_at) / RFU VPS37D (11726825_at) / Fold change /veh VPS37D (11726825_at) / RFU C10orf10 (11716522_x_at) / Fold change /veh C10orf10 (11716522_x_at) / RFU KIR2DL2 /// KIR2DL4 /// KIR2DL5A /// KIR2DL5B /// KIR2DS1 /// KIR2DS2 /// KIR2DS3 /// KIR2DS4 /// KIR3DL3 /// KIR3DL3 /// KIR3DS1 (11738374_at) / Fold change /veh KIR2DL2 /// KIR2DL4 /// KIR2DL5A /// KIR2DL5B /// KIR2DS1 /// KIR2DS2 /// KIR2DS3 /// KIR2DS4 /// KIR3DL3 /// KIR3DL3 /// KIR3DS1 (11738374_at) / RFU C1QL1 (11718748_at) / Fold change /veh C1QL1 (11718748_at) / RFU TMPRSS4 (11747572_a_at) / Fold change /veh TMPRSS4 (11747572_a_at) / RFU HAMP (11756126_x_at) / Fold change /veh HAMP (11756126_x_at) / RFU RNFT2 (11725882_a_at) / Fold change /veh RNFT2 (11725882_a_at) / RFU NR4A2 (11747474_a_at) / Fold change /veh NR4A2 (11747474_a_at) / RFU ABCC12 (11746883_a_at) / Fold change /veh ABCC12 (11746883_a_at) / RFU TMEM136 (11760407_x_at) / Fold change /veh TMEM136 (11760407_x_at) / RFU CLDN22 /// WWC2 (11732394_at) / Fold change /veh CLDN22 /// WWC2 (11732394_at) / RFU HLA-DPB1 (11760878_x_at) / Fold change /veh HLA-DPB1 (11760878_x_at) / RFU SPINT1 (11716480_a_at) / Fold change /veh SPINT1 (11716480_a_at) / RFU GAP43 (11754022_s_at) / Fold change /veh GAP43 (11754022_s_at) / RFU A4GNT (11735810_at) / Fold change /veh A4GNT (11735810_at) / RFU PRB3 (11715151_x_at) / Fold change /veh PRB3 (11715151_x_at) / RFU TUBB4B (11761932_at) / Fold change /veh TUBB4B (11761932_at) / RFU CAPN14 (11732068_a_at) / Fold change /veh CAPN14 (11732068_a_at) / RFU TMCC2 (11721928_a_at) / Fold change /veh TMCC2 (11721928_a_at) / RFU IRGQ (11745062_a_at) / Fold change /veh IRGQ (11745062_a_at) / RFU FAM174B (11720279_a_at) / Fold change /veh FAM174B (11720279_a_at) / RFU TMPRSS4 (11748680_a_at) / Fold change /veh TMPRSS4 (11748680_a_at) / RFU FAM212B (11763350_a_at) / Fold change /veh FAM212B (11763350_a_at) / RFU PLEKHG5 (11743358_a_at) / Fold change /veh PLEKHG5 (11743358_a_at) / RFU ZSCAN30 (11745921_a_at) / Fold change /veh ZSCAN30 (11745921_a_at) / RFU CMKLR1 (11741424_a_at) / Fold change /veh CMKLR1 (11741424_a_at) / RFU LOC101060620 /// MAPK8IP1 (11723275_at) / Fold change /veh LOC101060620 /// MAPK8IP1 (11723275_at) / RFU SPTSSB (11747773_x_at) / Fold change /veh SPTSSB (11747773_x_at) / RFU PRSS12 (11739890_at) / Fold change /veh PRSS12 (11739890_at) / RFU BIN1 (11741810_x_at) / Fold change /veh BIN1 (11741810_x_at) / RFU WNT11 (11732464_a_at) / Fold change /veh WNT11 (11732464_a_at) / RFU C10orf10 (11716521_a_at) / Fold change /veh C10orf10 (11716521_a_at) / RFU C5orf56 (11738089_at) / Fold change /veh C5orf56 (11738089_at) / RFU CYB561 (11721691_x_at) / Fold change /veh CYB561 (11721691_x_at) / RFU ANKRD19P (11752326_a_at) / Fold change /veh ANKRD19P (11752326_a_at) / RFU OR2T12 /// OR2T33 /// OR2T8 (11738714_s_at) / Fold change /veh OR2T12 /// OR2T33 /// OR2T8 (11738714_s_at) / RFU VCAN (11748164_a_at) / Fold change /veh VCAN (11748164_a_at) / RFU JSRP1 (11732532_at) / Fold change /veh JSRP1 (11732532_at) / RFU KRTAP10-11 (11738290_x_at) / Fold change /veh KRTAP10-11 (11738290_x_at) / RFU MYO3A (11730013_a_at) / Fold change /veh MYO3A (11730013_a_at) / RFU EBF3 (11725865_a_at) / Fold change /veh EBF3 (11725865_a_at) / RFU CAMK2N1 (11719241_x_at) / Fold change /veh CAMK2N1 (11719241_x_at) / RFU C5orf56 (11738088_a_at) / Fold change /veh C5orf56 (11738088_a_at) / RFU OLFML3 (11715873_a_at) / Fold change /veh OLFML3 (11715873_a_at) / RFU LOC100653217 /// NTM (11731650_a_at) / Fold change /veh LOC100653217 /// NTM (11731650_a_at) / RFU MAPK11 (11762145_a_at) / Fold change /veh MAPK11 (11762145_a_at) / RFU FIZ1 (11724087_x_at) / Fold change /veh FIZ1 (11724087_x_at) / RFU OASL (11726364_x_at) / Fold change /veh OASL (11726364_x_at) / RFU SOX15 (11748057_x_at) / Fold change /veh SOX15 (11748057_x_at) / RFU CD79A (11719716_a_at) / Fold change /veh CD79A (11719716_a_at) / RFU HIST1H1D (11736915_at) / Fold change /veh HIST1H1D (11736915_at) / RFU CASKIN2 (11723855_a_at) / Fold change /veh CASKIN2 (11723855_a_at) / RFU LOC730098 (11760151_x_at) / Fold change /veh LOC730098 (11760151_x_at) / RFU OR4N2 (11742367_at) / Fold change /veh OR4N2 (11742367_at) / RFU PRRT2 (11749266_a_at) / Fold change /veh PRRT2 (11749266_a_at) / RFU SNX32 (11753110_a_at) / Fold change /veh SNX32 (11753110_a_at) / RFU CDHR5 (11726645_a_at) / Fold change /veh CDHR5 (11726645_a_at) / RFU RCAN1 (11760418_a_at) / Fold change /veh RCAN1 (11760418_a_at) / RFU FAM167A (11723789_a_at) / Fold change /veh FAM167A (11723789_a_at) / RFU FAM26E (11764081_at) / Fold change /veh FAM26E (11764081_at) / RFU ISYNA1 (11749810_s_at) / Fold change /veh ISYNA1 (11749810_s_at) / RFU ACY1 (11761880_at) / Fold change /veh ACY1 (11761880_at) / RFU 11764098_at / Fold change /veh 11764098_at / RFU SAMD14 (11745864_x_at) / Fold change /veh SAMD14 (11745864_x_at) / RFU NPB (11741838_a_at) / Fold change /veh NPB (11741838_a_at) / RFU TMPRSS6 (11731388_a_at) / Fold change /veh TMPRSS6 (11731388_a_at) / RFU KRTAP10-2 (11738614_at) / Fold change /veh KRTAP10-2 (11738614_at) / RFU ARHGAP8 /// PRR5-ARHGAP8 (11727945_x_at) / Fold change /veh ARHGAP8 /// PRR5-ARHGAP8 (11727945_x_at) / RFU KRTAP5-7 /// NADSYN1 (11734609_at) / Fold change /veh KRTAP5-7 /// NADSYN1 (11734609_at) / RFU RASL12 (11751679_a_at) / Fold change /veh RASL12 (11751679_a_at) / RFU CDKN2B (11736163_a_at) / Fold change /veh CDKN2B (11736163_a_at) / RFU PRF1 (11729649_at) / Fold change /veh PRF1 (11729649_at) / RFU, ZNF638 /// ZNF638-IT1 / Fold change vs veh, ZNF638 /// ZNF638-IT1 / RFU, PANK3 / Fold change vs veh, PANK3 / RFU, SH3YL1 / Fold change vs veh, SH3YL1 / RFU, ZEB2 / Fold change vs veh, ZEB2 / RFU, NRIP1 / Fold change vs veh, NRIP1 / RFU, PTTG1IP / Fold change vs veh, PTTG1IP / RFU, CAPN2 / Fold change vs veh, CAPN2 / RFU, MED14 / Fold change vs veh, MED14 / RFU, SNORA58 / Fold change vs veh, SNORA58 / RFU, C1orf63 / Fold change vs veh, C1orf63 / RFU, LRRFIP1 / Fold change vs veh, LRRFIP1 / RFU, NDUFAF7 / Fold change vs veh, NDUFAF7 / RFU, SLC12A2 / Fold change vs veh, SLC12A2 / RFU, IBTK / Fold change vs veh, IBTK / RFU, ESF1 / Fold change vs veh, ESF1 / Fold change vs veh, TMEM50B / RFU, TAOK1 / Fold change vs veh, TAOK1 / RFU, ACBD3 / Fold change vs veh, ACBD3 / RFU, TMA16 / Fold change vs veh, TMA16 / RFU, RWDD3 / Fold change vs veh, RWDD3 / RFU, BCAT1 / Fold change vs veh, BCAT1 / RFU, EDEM3 / Fold change vs veh, EDEM3 / RFU, TMEM33 / Fold change vs veh, TMEM33 / RFU, WDR75 / Fold change vs veh, WDR75 / RFU, AHCTF1 / Fold change vs veh, AHCTF1 / RFU, TFRC / Fold change vs veh, TFRC / RFU, ZDHHC17 / Fold change vs veh, ZDHHC17 / RFU, NOM1 / Fold change vs veh, NOM1 / RFU, ARL8B / Fold change vs veh, ARL8B / RFU, ZBTB11 / Fold change vs veh, ZBTB11 / RFU, TAMM41 / Fold change vs veh, TAMM41 / RFU, KIAA1704 /// LOC100996395 / Fold change vs veh, KIAA1704 /// LOC100996395 / RFU, ING1 / Fold change vs veh, ING1 / RFU, TRMT61B / Fold change vs veh, TRMT61B / RFU, FUBP3 / Fold change vs veh, FUBP3 / RFU, TP53 / Fold change vs veh, TP53 / RFU, TNKS2 / Fold change vs veh, TNKS2 / RFU, ZFP14 / Fold change vs veh, ZFP14 / RFU, ACTR2 / Fold change vs veh, ACTR2 / RFU, PPP3R1 / Fold change vs veh, PPP3R1 / RFU, PIK3R1 / Fold change vs veh, PIK3R1 / RFU, HNRNPA1 / Fold change vs veh, HNRNPA1 / RFU, RNF170 / Fold change vs veh, RNF170 / RFU, ZNF28 / Fold change vs veh, ZNF28 / RFU, RNGTT / Fold change vs veh, RNGTT / RFU, OGT / Fold change vs veh, OGT / RFU, BRD1 / Fold change vs veh, BRD1 / RFU, MARS / Fold change vs veh, MARS / RFU, ZNF655 / Fold change vs veh, ZNF655 / RFU, FAHD1 / Fold change vs veh, FAHD1 / RFU, BDP1 / Fold change vs veh, BDP1 / RFU, LRRCC1 / Fold change vs veh, LRRCC1 / RFU, ARID1A / Fold change vs veh, ARID1A / RFU, ZNF146 / Fold change vs veh, ZNF146 / RFU, ZNF330 / Fold change vs veh, ZNF330 / RFU, GPN3 / Fold change vs veh, GPN3 / RFU, C9orf123 / Fold change vs veh, C9orf123 / RFU, N4BP2L2 / Fold change vs veh, N4BP2L2 / RFU, ARFIP1 / Fold change vs veh, ARFIP1 / RFU, FAM179B / Fold change vs veh, FAM179B / RFU, BCL10 / Fold change vs veh, BCL10 / RFU, UHRF1BP1L / Fold change vs veh, UHRF1BP1L / RFU, BET1 / Fold change vs veh, BET1 / RFU, CNOT2 / Fold change vs veh, CNOT2 / RFU, ZNF268 / Fold change vs veh, ZNF268 / Fold change vs veh, ZNF507 / RFU, DGCR2 / Fold change vs veh, DGCR2 / RFU, WDSUB1 / Fold change vs veh, WDSUB1 / Fold change vs veh, HSP90B1 /// MIR3652 / RFU, ADSS / Fold change vs veh, ADSS / RFU, GK / Fold change vs veh, GK / RFU, ZNF148 / Fold change vs veh, ZNF148 / RFU, TAF9 / Fold change vs veh, TAF9 / RFU, SLC1A5 / Fold change vs veh, SLC1A5 / RFU, SLMO2 / Fold change vs veh, SLMO2 / RFU, ABCC4 / Fold change vs veh, ABCC4 / RFU, LOC101060439 /// RAP1B / Fold change vs veh, LOC101060439 /// RAP1B / RFU, RFX7 / Fold change vs veh, RFX7 / RFU, GTPBP10 / Fold change vs veh, GTPBP10 / RFU, CNEP1R1 / Fold change vs veh, CNEP1R1 / RFU, BIVM-ERCC5 /// ERCC5 / Fold change vs veh, BIVM-ERCC5 /// ERCC5 / RFU, ILF3 / Fold change vs veh, ILF3 / RFU 11762660_at / Fold change /veh 11762660_at / RFU VCAN (11757783_s_at) / Fold change /veh VCAN (11757783_s_at) / RFU DDX43 (11728927_at) / Fold change /veh DDX43 (11728927_at) / RFU KRT8 (11758188_x_at) / Fold change /veh KRT8 (11758188_x_at) / RFU NKD1 (11759106_at) / Fold change /veh NKD1 (11759106_at) / RFU SRD5A1 (11742802_a_at) / Fold change /veh SRD5A1 (11742802_a_at) / RFU TPSAB1 /// TPSB2 (11721975_s_at) / Fold change /veh TPSAB1 /// TPSB2 (11721975_s_at) / RFU GSTM3 (11746129_a_at) / Fold change /veh GSTM3 (11746129_a_at) / RFU IL23R (11737362_x_at) / Fold change /veh IL23R (11737362_x_at) / RFU TMEM51 (11727254_a_at) / Fold change /veh TMEM51 (11727254_a_at) / RFU PIWIL2 (11732686_x_at) / Fold change /veh PIWIL2 (11732686_x_at) / RFU ORM1 (11744905_x_at) / Fold change /veh ORM1 (11744905_x_at) / RFU CCDC152 (11743942_at) / Fold change /veh CCDC152 (11743942_at) / RFU ECM1 (11717891_a_at) / Fold change /veh ECM1 (11717891_a_at) / RFU IL23R (11748794_a_at) / Fold change /veh IL23R (11748794_a_at) / RFU TNFAIP8L3 (11732012_x_at) / Fold change /veh TNFAIP8L3 (11732012_x_at) / RFU MBOAT4 (11741988_at) / Fold change /veh MBOAT4 (11741988_at) / RFU 11764193_at / Fold change /veh 11764193_at / RFU TMEM53 (11763286_at) / Fold change /veh TMEM53 (11763286_at) / RFU MAGEB2 (11727129_at) / Fold change /veh MAGEB2 (11727129_at) / RFU TMEM200A (11744735_a_at) / Fold change /veh TMEM200A (11744735_a_at) / RFU CCDC152 (11751479_a_at) / Fold change /veh CCDC152 (11751479_a_at) / RFU FAM211A (11726209_a_at) / Fold change /veh FAM211A (11726209_a_at) / RFU RGS16 (11746705_a_at) / Fold change /veh RGS16 (11746705_a_at) / RFU VCAN (11755009_s_at) / Fold change /veh VCAN (11755009_s_at) / RFU RHOB (11743442_s_at) / Fold change /veh RHOB (11743442_s_at) / RFU RGS16 (11720943_a_at) / Fold change /veh RGS16 (11720943_a_at) / RFU RGS16 (11720944_at) / Fold change /veh RGS16 (11720944_at) / RFU, VPS4B / Fold change vs veh, VPS4B / RFU, CREB1 / Fold change vs veh, CREB1 / RFU, DNAJC13 / Fold change vs veh, DNAJC13 / RFU, GNAQ / Fold change vs veh, GNAQ / RFU, CDK5R1 / Fold change vs veh, CDK5R1 / RFU, ZRANB3 / Fold change vs veh, ZRANB3 / RFU, CUL4A / Fold change vs veh, CUL4A / RFU, CCNY / Fold change vs veh, CCNY / RFU, UFL1 / Fold change vs veh, UFL1 / RFU, COG3 / Fold change vs veh, COG3 / RFU, DIAPH2 / Fold change vs veh, DIAPH2 / RFU, SKA2 / Fold change vs veh, SKA2 / RFU, AFF3 / Fold change vs veh, AFF3 / RFU, LMF1 / Fold change vs veh, LMF1 / RFU, IPO11 / Fold change vs veh, IPO11 / RFU, DFFB / Fold change vs veh, DFFB / RFU, FOXP1 / Fold change vs veh, FOXP1 / RFU, CARD8 / Fold change vs veh, CARD8 / RFU, STRN3 / Fold change vs veh, STRN3 / RFU, ADK / Fold change vs veh, ADK / RFU, RASSF2 / Fold change vs veh, RASSF2 / RFU, WIPF1 / Fold change vs veh, WIPF1 / RFU, LARP1B / Fold change vs veh, LARP1B / RFU, RASA1 / Fold change vs veh, RASA1 / RFU, RB1 / Fold change vs veh, RB1 / RFU, PPFIA1 / Fold change vs veh, PPFIA1 / RFU, MAT2A / Fold change vs veh, MAT2A / RFU, CCT5 / Fold change vs veh, CCT5 / RFU, WDR92 / Fold change vs veh, WDR92 / RFU, CUX1 / Fold change vs veh, CUX1 / RFU, TTC7A / Fold change vs veh, TTC7A / RFU, TMEM135 / Fold change vs veh, TMEM135 / RFU, DEPTOR / Fold change vs veh, DEPTOR / RFU, CPM / Fold change vs veh, CPM / RFU, DNAJB6 / Fold change vs veh, DNAJB6 / RFU, CACNA2D3 / Fold change vs veh, CACNA2D3 / RFU, DTX4 / Fold change vs veh, DTX4 / RFU, TFCP2 / Fold change vs veh, TFCP2 / RFU, GMCL1 /// GMCL1P1 / Fold change vs veh, GMCL1 /// GMCL1P1 / RFU, AEBP2 / Fold change vs veh, AEBP2 / RFU, SNHG1 /// SNORD22 /// SNORD25 /// SNORD26 /// SNORD27 /// SNORD28 /// SNORD29 /// SNORD31 / Fold change vs veh, SNHG1 /// SNORD22 /// SNORD25 /// SNORD26 /// SNORD27 /// SNORD28 /// SNORD29 /// SNORD31 / Fold change (Aza/veh), C12orf56 (ProbeSet 11735607_a_at) / Fold change (ACY-1035/veh), C12orf56 (ProbeSet 11735607_a_at) / Fold change (Aza/veh), FGFR1OP (ProbeSet 11751329_s_at) / Fold change (ACY-1035/veh), FGFR1OP (ProbeSet 11751329_s_at) / Fold change (Aza/veh), VPS36 (ProbeSet 11739960_a_at) / Fold change (ACY-1035/veh), VPS36 (ProbeSet 11739960_a_at) / RFU SYPL1 (11715823_x_at) / Fold change /veh SYPL1 (11715823_x_at) / RFU IGFBP7 (11715501_s_at) / Fold change /veh IGFBP7 (11715501_s_at) / RFU REEP3 (11722064_at) / Fold change /veh REEP3 (11722064_at) / RFU IGLL1 (11728026_x_at) / Fold change /veh IGLL1 (11728026_x_at): dose or concentration left out as unconfirmed
Conditions: ProbeSet 11726661_s_at; LIST B

## Nc1ncn([C@@H]2O[C@H](CO)[C@@H](O)[C@H]2O)c(=O)n1 [azacitidine]
  RFU, GPN3: 248.57 RFU
